# Laboratory results from patent publication US11834696B2, “Antimicrobial susceptibility testing with large-volume light scattering imaging and deep learning video microscopy” (Arizona Board of Regents on behalf of Arizona State …, priority 2017, dated 2023).
# Experiments:
# E. coli [1] = assay: Deep learning video microscopy-based antimicrobial susceptibility testing (DLVM-AST); type: cell-based, Escherichia coli (ATCC 43888); conditions: for MIC: Escherichia coli
# E. coli [2] = assay: microbe, parasite or virus in culture; type: cell-based, Escherichia coli (ATCC 43888); conditions: broth macrodilution, 37° C., triplicate; for MIC: Escherichia coli
# Method: AST with broth macrodilution (BMD) method. For comparison, AST was also performed by the BMD method (CLSI gold standard^35). The adjusted inoculum E. coli suspension is diluted in Cation-adjusted Mueller Hinton Broth (CAMHB, Sigma-Aldrich) and the concentration of E. coli cell cultures are adjusted to 1×10^6 cells/mL based on UV-Vis spectrophotometer (NanoDrop 2000, Thermo Fisher) readings at OD600. […] After inoculation, each tube contains approximately 5×10^5 cells/mL. […] This test was performed in triplicate.
# E. coli [3] = assay: AST without DL (division feature only, cell counting from the videos); type: cell-based, Escherichia coli (ATCC 43888); conditions: for MIC: Escherichia coli
# Method: To further validate the DLVM-AST method, we counted the total number of bacteria cells (Ntotal) from the videos (as shown in FIG. 9), and plotted Ntotal (mean±std) vs. time for PMB at various concentrations (as shown in FIG. 11C).
# Growth and preparation of E. coli. Frozen E. coli strains were thawed, and 50 μL of which were cultured in 5 mL of Luria-Bertani (LB) medium (Per liter: 10 g peptone 140, 5 g yeast extract, and 5 g sodium chloride) at 37° C. and 150 rpm for 16 hours. Saturated cultures in the volume of 20 μL were diluted into 5 mL of fresh LB medium, and growth continued at 37° C. with 150 rpm for 1 hour to attain a logarithmic phase of growth. Bacterial cells were collected by centrifugation at 450 g for 5 min and suspended in urine to a concentration of 2×10^7 cells/mL^36. This concentration was determined by measuring the extinction coefficients for E. coli from the Optical Density (OD600) reading taken with a spectrophototometer (NanoDrop™ 2000/2000c Spectrophotometers, Thermo Scientific). The calibration factor for bacterial cell cultures estimation was 8×10^8 cells/mL per OD600 unit. Before use, the bacteria-spiked urine samples were filtered using a 5 μm syringe filter (EMD Millipore) to remove large particles.
# AST with video microscopy. The microfluidic chip was placed on an inverted microscope (Olympus IX-81) with a 40× phase contrast objective lens and imaged with a CCD camera (Pike-032B, Allied Vision Technologies, Newburyport, Mass.). A 200-μL bacterial suspension (2×10^7 cells/mL) was mixed with an equal volume of antibiotic solution for each antibiotic concentration or an equal volume of water as a control experiment. These mixed solutions were injected into different microfluidic channels simultaneously. After the microfluidic channels were fulfilled with these mixed solutions, two microfluidic valves of each detection channel were closed simultaneously to generate a stable microenvironment. Videos of the bacterial cells were recorded at 100 frames per second (fps) immediately (0 min) and after every 30 min. Each video lasted for 30 seconds. The raw images were batch-converted to 16-bit tiff format using a Matlab program and pre-processed to minimize background artifacts before being processed with the DL model. To include enough cells for reliable results, we integrated bacterial cells from three videos recorded from different experiments. Each experiment was repeated independently for three times.
# E. coli [4] = assay: Phenotypic features (motion, morphology) in recorded bacteria videos in presence of antibiotics; type: cell-based, Escherichia coli; conditions: 3 hours
# Method: Referring now simultaneously to FIG. 8A-FIG. 8C, phenotypic features in the recorded bacteria videos in the presence and absence of antibiotics are shown. […] Concentrations of PMB and aztreonam are 8 μg/mL and 0.5 μg/mL, respectively.
# In principle, the raw bacterial videos could be used as inputs for a DL model, but the computational expense is impractical. In fact, few DL applications could use videos as input data directly even with high performance super-computers.^30-32 To overcome this difficulty, a method to compress the raw videos into static images without losing key phenotypic features was developed as described further below. This approach imitates human vision, which pre-processes raw images in the vision system to reduce complexity before passing them to the brain. The key phenotypic features in the video include cell division, motion, and morphology. […] Cell motion and morphology may also change when exposing the cell to antibiotics, thus serving as additional phenotypic features for AST. […]
# AST with video microscopy. […] Videos of the bacterial cells were recorded at 100 frames per second (fps) immediately (0 min) and after every 30 min. […] To include enough cells for reliable results, we integrated bacterial cells from three videos recorded from different experiments. […]
# [5] = tested on: E. coli O157 model strain; assay: Susceptibility test with 40× optical microscope and imaging-processing algorithm tracking motion and growth; type: cell-based; conditions: @30 mins; concentrated bacterial samples
# Description: The inventors here have tested the susceptibility of E. coli O157 model strain to polymysin B (PMB, an antibiotic) using a 40× optical microscope. The individual bacterial cells 12 were identified, and their motions and growth were tracked using an imaging-processing algorithm. Inhibition curves were derived from the tracking data as shown below with respect to FIG. 4B and FIG. 4C. […] However, the experiment used concentrated bacterial samples, because the microscope has a small viewing size.
# [6] = E. coli spiked in urine, triplicate
# [7] = division feature only, triplicate
Compound,MIC (E. coli [1]; [6]) [µg/mL],MIC (E. coli [2]) [µg/mL],MIC (E. coli [3]; [7]) [µg/mL],further results
"CC1(C)S[C@@H]2[C@H](NC(=O)[C@H](N)c3ccccc3)C(=O)N2[C@H]1C(=O)O [Ampicillin, ampicillin]",2,2,2,–
"C[C@H]1[C@H](NC(=O)/C(=N\OC(C)(C)C(=O)O)c2csc(N)n2)C(=O)N1S(=O)(=O)O [Aztreonam, aztreonam]",0.12,0.12,0.12,effect on bacterial morphology (E. coli [4]; aztreonam 0.5 μg/mL): caused the bacterial cells to elongate
"O=C(O)c1cn(C2CC2)c2cc(N3CCNCC3)c(F)cc2c1=O [Ciprofloxacin, ciprofloxacin]",–,–,0.015 to 0.03,–
"[H]/N=C(/N)N[C@H]1[C@H](O)[C@@H](O)[C@H](O[C@@H]2O[C@@H](C)[C@](O)(C=O)[C@H]2O[C@@H]2O[C@@H](CO)[C@H](O)[C@@H](O)[C@@H]2NC)[C@@H](N/C(N)=N\[H])[C@@H]1O [Streptomycin, streptomycin]",4,4,4,–
polymyxin B,–,–,–,"MIC, DLVM-AST (E. coli [1]; [6]): 2 µg/mL; MIC (concentration at which 90% of the bacterial cells are inhibited) (E. coli [1]; obtained 30 minutes after antibiotic treatment): 2 µg/mL; MIC, BMD (E. coli [2]): 2 µg/mL; MIC from Ntotal vs. antibiotic concentration (E. coli [3]; at 180 minutes, cell counting): ~2 µg/mL; MIC, AST Without DL (E. coli [3]; [7]): 1 to 2 µg/mL; effect on bacterial motion (E. coli [4]; PMB 8 μg/mL): decreased bacterial motion; MIC [5]: 2 µg/mL"
